In the supplement of paper PMC11451515:

Columns and labels:
Settings in all cases: 48 h
NOMO1 [1] = assay: cell viability relative to DMSO control; higher = less cytotoxic
Summary of the method: (§1)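 NOMO1, SEM and P12-Ichikawa leukemia cells spent at least four passages adapting to each medium before use. They were seeded at 500 cells/well (NOMO1, SEM) or 1000 cells/well (P12-Ichikawa) in 5 μl in 1536-well plates and pin-dosed with library compounds in DMSO at 11 threefold steps from 47 μM down to 0.79 nM. After 48 h at 37°C, CellTiter-Glo One luminescence was read. Viability is reported as a percentage of the DMSO wells on each plate, with cell-free wells as background.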

SEM cells [2] = assay: as above
Summary of the method: as §1

P12-Ichikawa [3] = assay: as above
Summary of the method: as §1

NOMO1 [4] = assay: AUC of viability dose-response curve (% viability x log10 dose units); higher = less sensitive
Summary of the method: (§2)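 Medium-adapted leukemia cells in 1536-well plates, at 500 or 1000 cells/well, were incubated for 48 h at 37°C with library compounds in DMSO at 11 threefold doses from 47 μM to 0.79 nM. CellTiter-Glo One luminescence normalised per plate to DMSO and cell-free wells was fitted with a four-parameter log-logistic model over log10 doses. Area under the curve was integrated from this fit by trapezoidal rule, with curves beyond full viability scaled and failed quality-control curves removed.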

SEM cells [5] = assay: as above
Summary of the method: as §2

P12-Ichikawa [6] = assay: as above
Summary of the method: as §2

C[C@@H](N)C1CC[C@@H](CC1)C(=O)NC2=CC=NC=C2 (stereo partly drawn)
cell viability [%]
Settings | NOMO1 [1] | P12-Ichikawa [3] | SEM cells [2]
HPLM + 10% dialyzed FBS, 0.000781 µM | 98.8 | 109 | 91.8
HPLM + 10% dialyzed FBS, 0.00234 µM | 114 | 112 | 117
HPLM + 10% dialyzed FBS, 0.00702 µM | 117 | 111 | 107
HPLM + 10% dialyzed FBS, 0.0211 µM | 126 | 115 | 108
HPLM + 10% dialyzed FBS, 0.0632 µM | 123 | 112 | 103
HPLM + 10% dialyzed FBS, 0.19 µM | 136 | 113 | 106
HPLM + 10% dialyzed FBS, 0.569 µM | 128 | 123 | 129
HPLM + 10% dialyzed FBS, 1.71 µM | 132 | 116 | 129
HPLM + 10% dialyzed FBS, 5.12 µM | 119 | 125 | 119
HPLM + 10% dialyzed FBS, 15.4 µM | 113 | 116 | 122
HPLM + 10% dialyzed FBS, 46.1 µM | 100 | 104 | 120
RPMI 5 mM glucose + 10% FBS, 0.000781 µM | 114 | 117 | 94
RPMI 5 mM glucose + 10% FBS, 0.00234 µM | 97.3 | 109 | 99.3
RPMI 5 mM glucose + 10% FBS, 0.00702 µM | 114 | 115 | 99.8
RPMI 5 mM glucose + 10% FBS, 0.0211 µM | 106 | 125 | 90.3
RPMI 5 mM glucose + 10% FBS, 0.0632 µM | 101 | 118 | 103
RPMI 5 mM glucose + 10% FBS, 0.19 µM | 120 | 127 | 108
RPMI 5 mM glucose + 10% FBS, 0.569 µM | 122 | 121 | 112
RPMI 5 mM glucose + 10% FBS, 1.71 µM | 104 | 114 | 115
RPMI 5 mM glucose + 10% FBS, 5.12 µM | 123 | 118 | 104
RPMI 5 mM glucose + 10% FBS, 15.4 µM | 93.5 | 109 | 109
RPMI 5 mM glucose + 10% FBS, 46.1 µM | 93.1 | 112 | 113
RPMI 5 mM glucose + 10% dialyzed FBS, 0.000781 µM | 113 | 110 | 93.7
RPMI 5 mM glucose + 10% dialyzed FBS, 0.00234 µM | 105 | 121 | 107
RPMI 5 mM glucose + 10% dialyzed FBS, 0.00702 µM | 110 | 119 | 111
RPMI 5 mM glucose + 10% dialyzed FBS, 0.0211 µM | 91 | 122 | 121
RPMI 5 mM glucose + 10% dialyzed FBS, 0.0632 µM | 105 | 121 | 117
RPMI 5 mM glucose + 10% dialyzed FBS, 0.19 µM | 116 | 130 | 114
RPMI 5 mM glucose + 10% dialyzed FBS, 0.569 µM | 115 | 124 | 131
RPMI 5 mM glucose + 10% dialyzed FBS, 1.71 µM | 113 | 134 | 120
RPMI 5 mM glucose + 10% dialyzed FBS, 5.12 µM | 113 | 120 | 114
RPMI 5 mM glucose + 10% dialyzed FBS, 15.4 µM | 94.1 | 121 | 116
RPMI 5 mM glucose + 10% dialyzed FBS, 46.1 µM | 90 | 118 | 114

AUC of viability dose-response curve
Settings | NOMO1 [4] | P12-Ichikawa [6] | SEM cells [5]
HPLM + 10% dialyzed FBS | 472 | 469 | 438
RPMI 5 mM glucose + 10% FBS | 462 | 470 | 452
RPMI 5 mM glucose + 10% dialyzed FBS | 466 | 470 | 464

C[C@@H]1C(=O)OC2[C@H](O)[C@]34[C@H]5C[C@@H](C(C)(C)C)[C@]36[C@@H](OC(=O)[C@@H]6O)O[C@@]4(C(=O)O5)[C@]21O (stereo partly drawn)
SEM cells [2], HPLM + 10% dialyzed FBS
Settings | cell viability [%]
0.000781 µM | 116
0.00234 µM | 102
0.00702 µM | 129
0.0211 µM | 119
0.0632 µM | 127
0.19 µM | 116
0.569 µM | 117
1.71 µM | 119
5.12 µM | 91.8
15.4 µM | 107
46.1 µM | 65.8

AUC of viability dose-response curve
Settings | NOMO1 [4] | P12-Ichikawa [6] | SEM cells [5]
HPLM + 10% dialyzed FBS | 450 | 452 | 451
RPMI 5 mM glucose + 10% FBS | 457 | 445 | 437
RPMI 5 mM glucose + 10% dialyzed FBS | 457 | 450 | 424

OCCN1C[C@H](O)[C@@H](O)[C@H](O)[C@H]1CO
SEM cells [2], HPLM + 10% dialyzed FBS
Settings | cell viability [%]
0.000781 µM | 93.6
0.00234 µM | 116
0.00702 µM | 129
0.0211 µM | 118
0.0632 µM | 86.6
0.19 µM | 114
0.569 µM | 138
1.71 µM | 125
5.12 µM | 134
15.4 µM | 136
46.1 µM | 123

AUC of viability dose-response curve
Settings | NOMO1 [4] | P12-Ichikawa [6] | SEM cells [5]
HPLM + 10% dialyzed FBS | 296 | 365 | 432
RPMI 5 mM glucose + 10% FBS | 266 | 371 | 417
RPMI 5 mM glucose + 10% dialyzed FBS | 296 | 377 | 384
